Data taken from ChEMBL document CHEMBL1137177, “Synthesis of 2',5'-oligoadenylate analogs containing an adenine acyclonucleoside and their ability to activate human RNase L” (Bioorg Med Chem Lett, 2004).

Test: Effective concentration for activation of RNase L

EC50	SMILES
1 nM	Nc1ncnc2c1ncn2[C@@H]1O[C@H](COP(=O)(O)O[C@@H]2[C@H](O)[C@@H](COP(=O)(O)O[C@@H]3[C@H](O)[C@@H](COP(=O)(O)O[C@@H]4[C@H](O)[C@@H](COP(=O)(O)O)O[C@H]4n4cnc5c(N)ncnc54)O[C@H]3n3cnc4c(N)ncnc43)O[C@H]2n2cnc3c(N)ncnc32)[C@@H](O)[C@H]1O
9 nM	Nc1ncnc2c1ncn2C[C@H](OP(=O)(O)OC[C@H]1O[C@@H](n2cnc3c(N)ncnc32)[C@H](OP(=O)(O)OC[C@H]2O[C@@H](n3cnc4c(N)ncnc43)[C@H](O)[C@@H]2O)[C@@H]1O)[C@H](O)CO[PH](=O)O[C@@H]1[C@H](O)[C@@H](COP(=O)(O)O)O[C@H]1n1cnc2c(N)ncnc21 (stereo partly drawn)
1.7 nM	Nc1ncnc2c1ncn2C[C@H](OP(=O)(O)OC[C@H]1O[C@@H](n2cnc3c(N)ncnc32)[C@H](O)[C@@H]1O)[C@H](O)COP(=O)(O)O[C@@H]1[C@H](O)[C@@H](CO[PH](=O)O[C@@H]2[C@H](O)[C@@H](COP(=O)(O)O)O[C@H]2n2cnc3c(N)ncnc32)O[C@H]1n1cnc2c(N)ncnc21 (stereo partly drawn)
